Some results are limits rather than exact numbers.

This is an account of results in patent publication US20240383908A1, “SYNTHESIS AND APPLICATION OF PHOSPHATASE DEGRADER” (HINOVA PHARMACEUTICALS INC., priority 2021, published 2024).

For this experiment, the target named is T1, SHP2 protein (Homo sapiens, UniProt Q06124).
T1 sequence (Q06124 1-593): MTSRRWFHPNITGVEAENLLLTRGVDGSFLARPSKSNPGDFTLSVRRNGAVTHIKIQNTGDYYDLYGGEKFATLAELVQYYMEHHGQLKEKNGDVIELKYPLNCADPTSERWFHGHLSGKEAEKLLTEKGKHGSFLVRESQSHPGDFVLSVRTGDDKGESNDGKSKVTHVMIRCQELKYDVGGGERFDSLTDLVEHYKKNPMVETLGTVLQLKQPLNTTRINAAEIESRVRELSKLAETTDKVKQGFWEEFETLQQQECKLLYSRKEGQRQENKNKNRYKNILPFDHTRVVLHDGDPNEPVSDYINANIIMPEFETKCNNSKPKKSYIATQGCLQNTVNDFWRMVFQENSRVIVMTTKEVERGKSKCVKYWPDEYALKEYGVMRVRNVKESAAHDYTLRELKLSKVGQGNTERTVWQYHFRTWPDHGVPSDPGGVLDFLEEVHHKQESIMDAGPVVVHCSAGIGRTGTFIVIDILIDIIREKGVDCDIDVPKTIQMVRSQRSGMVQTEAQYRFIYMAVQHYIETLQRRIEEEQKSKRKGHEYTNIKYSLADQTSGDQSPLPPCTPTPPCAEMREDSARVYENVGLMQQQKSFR
Nature of the experiment: Degradation activity on SHP2 protein in MIA Paca-2 cells (Western blot, DC50). It is filed as cell-based. On the set-up: endogenous in cells; host or cells: MIA Paca-2 cells. To be noted: read-out: Degradation activity for differenct cell lines MIA Paca-2 (DC50). On the procedure:
(1) MV-411 cells were cultured in the cell culture medium, and then well-growing cells were selected and inoculated in a 12-well plate, with 1 mL/well and 1×10^6 cells/well. The plate was incubated overnight in a 5% CO2 cell incubator at 37° C.
(2) 10 mM storage solution of each drug was prepared using dimethylsulfoxide (DMSO). The stock solution was diluted gradually with DMSO before use, and then 1 μL of the compound solution was added to the cell culture well (to ensure that the DMSO concentration in the culture system was […]), so that the final drug concentration is 100 nM, 10 nM, 3 nM, 1 nM, 0.3 nM, and 0.1 nM. Two wells were set for each concentration. The plate was gently shaken and mixed. Additionally, negative control wells (containing an equal amount of DMSO) and positive control wells were included.
(3) After 24 hours of cultivation, the cells were lysed using RIPA cell lysate, and the proteins were extracted. The protein concentration was measured using a BCA assay kit. 5× concentrated protein buffer was loaded, heated at 100° C. for 5 min, and then the sample was stored at −20° C.
(4) For each well, 30 μg of protein was loaded to polyacrylamide gel for electrophoresis.
(5) The protein was transferred from polyacrylamide gel to PVDF membrane, and sealed at room temperature with 5% skimmed milk for 1 h, which was then incubated with the primary antibodies (Anti-SHP2 rabbit mAb and Anti-GAPDH rabbit mAb) at 4° C. overnight. The membrane was washed three times with TBST solution, 10 minutes for each time. After that, the membrane was incubated with the secondary antibodies (horseradish peroxidase labeled goat anti-rabbit IgG) at room temperature for 2 h, and then washed three times with TBST solution, 10 minutes for each time, followed by exposure.
(6) The images were analyzed with Image J grayscale, and the degradation ratio of protein bands in the test group was calculated, based on the negative control group (DMSO) (100%).
(7) Using the Dose-response-inhibition equation in the data processing software GraphPad Prism 8, the DC50 value was obtained (which represents the drug concentration corresponding to 50% degradation of the target protein).
Using similar methods and different cell lines, the degradation activity of the compound according to the present invention on SHP2 protein of different cell lines was tested under suitable culture conditions.
Background: Immunoblotting shows a protein as a band on a membrane.
A word on the DC50: it is the concentration giving 50% degradation. Take `CC1(N)CCN(c2cnc(Sc3cccc(NC(=O)C4CCC(N5CC=C(c6ccc(C(=O)NCc7ccc8c(c7)CN(C7CCC(=O)NC7=O)C8=O)nc6)CC5)CC4)c3)cn2)CC1` (single isomer, unassigned) [Compound 300]: the half-maximal degradation concentration (DC50) is over 1000 nM.
`CC1(N)CCN(c2cnc(Sc3cccc(NC(=O)C4CCC(N5CC=C(c6ccc(C(=O)NCc7ccc8c(c7)CN(C7CCC(=O)NC7=O)C8=O)nc6)CC5)CC4)c3)cn2)CC1` (single isomer, unassigned) [Compound 301]: the 50% degradation concentration (DC50) was over 1000 nM.
With `CC1(N)CCN(c2cnc(Sc3cccc(NC(=O)C4CC45CCC(N4CC=C(c6ccc(C(=O)NCc7ccc8c(c7)CN(C7CCC(=O)NC7=O)C8=O)nc6)CC4)CC5)c3)cn2)CC1` (single isomer, unassigned) [Compound 314], the DC50 is over 1000 nM.
In the case of `CC1(N)CCN(c2cnc(Sc3cccc(NC(=O)C4CC45CCC(N4CC=C(c6ccc(C(=O)NCc7ccc8c(c7)CN(C7CCC(=O)NC7=O)C8=O)nc6)CC4)CC5)c3)cn2)CC1` (single isomer, unassigned) [Compound 315], the DC50 was over 1000 nM.
On to `CC1(N)CCN(c2cnc(Sc3cccc(NC(=O)C4CC45CCC(N4CC=C(c6ccc(C(=O)Nc7ccc8c(c7)CN(C7CCC(=O)NC7=O)C8=O)nc6)CC4)CC5)c3)cn2)CC1` (single isomer, unassigned) [Compound 316], for which the DC50 was over 1000 nM.
In the case of `CC1(N)CCN(c2cnc(Sc3cccc(NC(=O)C4CC45CCC(N4CC=C(c6ccc(C(=O)NCc7ccc8c(c7)CN(C7CCC(=O)NC7=O)C8=O)nn6)CC4)CC5)c3)cn2)CC1` (single isomer, unassigned) [Compound 318], the DC50 was over 1000 nM.
Under `CC1(N)CCN(c2cnc(Sc3cccc(NC(=O)C4CC45CCC(N4CC=C(c6ccc(C(=O)NCc7ccc8c(c7)CN(C7CCC(=O)NC7=O)C8=O)nn6)CC4)CC5)c3)cn2)CC1` (single isomer, unassigned) [Compound 319] stands over 1000 nM; under `CC1(N)CCN(c2cnc(Sc3cccc(NC(=O)C4CC45CCC(N4CC=C(c6ccc(C(=O)Nc7ccc8c(c7)CN(C7CCC(=O)NC7=O)C8=O)nn6)CC4)CC5)c3)cn2)CC1` (single isomer, unassigned) [Compound 320], over 1000 nM.
Consider `CC1(N)CCN(c2cnc(Sc3cccc(NC(=O)C4CC45CCC(N4CC=C(c6ccc(C(=O)Nc7ccc8c(c7)CN(C7CCC(=O)NC7=O)C8=O)nn6)CC4)CC5)c3)cn2)CC1` (single isomer, unassigned) [Compound 321], for which the half-maximal degradation concentration (DC50) was under 100 nM.
Under `CC1(N)CCN(c2cnc(Sc3cccc(NC(=O)C4CC45CCC(N4CC=C(c6ccc(C(=O)N7CCN(c8ccc9c(c8)CN(C8CCC(=O)NC8=O)C9=O)CC7)nc6)CC4)CC5)c3)cn2)CC1` (single isomer, unassigned) [Compound 322] stands over 1000 nM; under `CC1(N)CCN(c2cnc(Sc3cccc(NC(=O)C4CC45CCC(N4CC=C(c6ccc(C(=O)N7CCN(c8ccc9c(c8)CN(C8CCC(=O)NC8=O)C9=O)CC7)nc6)CC4)CC5)c3)cn2)CC1` (single isomer, unassigned) [Compound 323], over 1000 nM.
Regarding `O=C1CCC(N2Cc3cc(CNC(=O)c4ccc(N5CCC6(CN(CCCCCCC(=O)Nc7cccc(Sc8cnc(N9CCCCC9)cn8)c7)C6)C5)nn4)ccc3C2=O)C(=O)N1` (stereo not drawn) [Compound 212], the DC50 was over 1000 nM.
In the case of `CC1(N)CCN(c2cnc(Sc3cccc(NC(=O)CCCCCOc4ccc(-c5ccc(C(=O)NCc6ccc7c(c6)CN(C6CCC(=O)NC6=O)C7=O)nc5)cc4)c3)cn2)CC1` (stereo not drawn) [Compound 213], the DC50 is over 1000 nM.
With `CC1(N)CCN(c2cnc(Sc3cccc(NC(=O)CCN4CC5(CCC(OCCNc6ccc(C(=O)NCc7ccc8c(c7)CN(C7CCC(=O)NC7=O)C8=O)nn6)CC5)C4)c3)cn2)CC1` (stereo not drawn) [Compound 214], the DC50 was over 1000 nM.
For the compound `CC1(N)CCN(c2cnc(Sc3cccc(NC(=O)CCCCCCN4CCC5(CC4)CC(=O)N(CC(=O)NCc4ccc6c(c4)CN(C4CCC(=O)NC4=O)C6=O)C5)c3)cn2)CC1` (stereo not drawn) [Compound 215], the 50% degradation concentration (DC50) was over 1000 nM.
For `C[C@@H]1OCC2(CCN(c3cnc(Sc4cccc(NCc5ccc(CN6CCN(c7ccc(C(=O)NCc8ccc9c(c8)CN(C8CCC(=O)NC8=O)C9=O)nn7)CC6)cc5)c4)cn3)CC2)[C@@H]1N` (stereo partly drawn) [Compound 253] the value was over 1000 nM; for `CC1(N)CCN(c2cnc(Sc3cccc(NCc4ccc(CN5CCN(c6ccc7c(c6)CN(C6CCC(=O)NC6=O)C7=O)CC5)cc4)c3)cn2)CC1` (stereo not drawn) [Compound 254], over 1000 nM.
For `C[C@@H]1OCC2(CCN(c3cnc(Sc4cccc(NCc5ccc(CN6CCN(c7ccc8c(c7)CN(C7CCC(=O)NC7=O)C8=O)CC6)cc5)c4)cn3)CC2)[C@@H]1N` (stereo partly drawn) [Compound 255] the value was over 1000 nM; for `CC1(N)CCN(c2cnc(Sc3cccc(NCC4CCC(N5CCN(c6ccc7c(c6)CN(C6CCC(=O)NC6=O)C7=O)CC5)CC4)c3)cn2)CC1` (stereo not drawn) [Compound 256], over 1000 nM; for `CC1(N)CCN(c2cnc(Sc3cccc(NCc4ccc(N5CCN(c6ccc(C(=O)NCc7ccc8c(c7)C(=O)N(C7CCC(=O)NC7=O)C8)nn6)CC5)c(F)c4)c3)cn2)CC1` (stereo not drawn) [Compound 258], over 1000 nM.
In the case of `CC1(N)CCN(c2cnc(Sc3cccc(NC(=O)c4ccc(N5CCN(c6ccc(C(=O)NCc7ccc8c(c7)C(=O)N(C7CCC(=O)NC7=O)C8)nn6)CC5)c(F)c4)c3)cn2)CC1` (stereo not drawn) [Compound 260], the DC50 is over 1000 nM.
For `C[C@@H]1OCC2(CCN(c3cnc(Sc4cccc(NC(=O)c5ccc(N6CCN(c7ccc(C(=O)NCc8ccc9c(c8)C(=O)N(C8CCC(=O)NC8=O)C9)nn7)CC6)c(F)c5)c4)cn3)CC2)[C@@H]1N` (stereo partly drawn) [Compound 261] the value was under 100 nM; for `C[C@@H]1OCC2(CCN(c3cnc(Sc4cccc(NC(=O)CCCN5CCN(c6ccc(C(=O)NCc7ccc8c(c7)C(=O)N(C7CCC(=O)NC7=O)C8)nn6)CC5)c4)cn3)CC2)[C@@H]1N` (stereo partly drawn) [Compound 262], over 1000 nM.
Regarding `C[C@@H]1OCC2(CCN(c3cnc(Sc4cccc(NC(=O)COc5ccc(N6CCN(c7ccc(C(=O)NCc8ccc9c(c8)CN(C8CCC(=O)NC8=O)C9=O)nn7)CC6)cc5)c4)cn3)CC2)[C@@H]1N` (stereo partly drawn) [Compound 263], the half-maximal degradation concentration (DC50) was under 100 nM.
Take `CC1(N)CCN(c2cnc(Sc3cccc(NC(=O)COc4ccc(N5CCN(c6ccc(C(=O)NCc7ccc8c(c7)CN(C7CCC(=O)NC7=O)C8=O)nn6)CC5)cc4)c3)cn2)CC1` (stereo not drawn) [Compound 265]: the half-maximal degradation concentration (DC50) is under 100 nM.
As for `CC1(N)CCN(c2cnc(Sc3cccc(NC(=O)CCCCN4CCC(N5CCN(c6ccc(C(=O)NCc7ccc8c(c7)CN(C7CCC(=O)NC7=O)C8=O)nn6)CC5C(F)(F)F)C4)c3)cn2)CC1` (stereo not drawn) [Compound 267], the DC50 is under 100 nM.
Turning to `CC1(N)CCN(c2cnc(Sc3cccc(NC(=O)C4CC(N5CCN(c6ccc7c(c6)C(=O)N(C6CCC(=O)NC6=O)C7=O)CC5)C4)c3)cn2)CC1` (stereo not drawn) [Compound 268], the half-maximal degradation concentration (DC50) is over 1000 nM.
Under `CC1(N)CCN(c2cnc(Sc3cccc(NC(=O)C4CC(N5CCN(c6ccc7c(c6)CN(C6CCC(=O)NC6=O)C7=O)CC5)C4)c3)cn2)CC1` (stereo not drawn) [Compound 269] stands over 1000 nM.
`CC1(N)CCN(c2cnc(Sc3cccc(NC(=O)C4CCC(N5CCN(c6ccc7c(c6)C(=O)N(C6CCC(=O)NC6=O)C7=O)CC5)CC4)c3)cn2)CC1` (stereo not drawn) [Compound 270]: the DC50 is over 1000 nM.
With `CC1(N)CCN(c2cnc(Sc3cccc(NC(=O)C4CCC(N5CCN(c6ccc7c(c6)CN(C6CCC(=O)NC6=O)C7=O)CC5)CC4)c3)cn2)CC1` (stereo not drawn) [Compound 271], the half-maximal degradation concentration (DC50) was over 1000 nM.
